Assay [1] concerns Wnt pathway activity (SW480 colon carcinoma cells stably expressing the Sp5-Luc reporter). Nature of the assay: Wnt pathway activity screening assay (Sp5-Luc reporter gene assay). Particulars: Homo sapiens, SW480, Table 4; SW480 cells stably expressing Sp5-Luc reporter, 10-point dose-response from 10 μM, 36 to 48 hours.
The next assay addresses CLK3 kinase (Homo sapiens, UniProt P49761). Nature of the assay: CLK3 kinase activity assay (Z-lyte FRET).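 Note: kinase activity read as coumarin/fluorescein emission ratio by FRET, unphosphorylated peptide as 0% and phosphorylated peptide as 100% control, values from non-linear regression of dose-response curves.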 It counts as biochemical. Particulars: Z-lyte Ser/Thr 18 peptide, 156 μM ATP, 1 h at room temperature.
A further assay concerns the target CLK2 kinase (Homo sapiens, UniProt P49760). The experiment in a line: CLK2 kinase activity assay (Z-lyte FRET).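 Note: FRET read-out as coumarin to fluorescein emission ratio, unphosphorylated peptide as 0% and phosphorylated peptide as 100% controls, duplicate reactions, non-linear regression fit of dose-response curves.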 It counts as biochemical. As to conditions: Z-lyte Ser/Thr 6 peptide, 60 μM ATP, 1 h at room temperature.
For assay [2], the system named is primary human mesenchymal stem cells (hMSCs). Nature of the assay: Chondrogenesis screening using primary human mesenchymal stem cells. Type of assay: cell-based. Particulars: Homo sapiens, Mesenchymal stem cells, hMSC chondrogenesis; for Emax: maximum activity relative to TGF-β3 (10 ng/mL) positive control, read-out: Max. Activity as % TGF-β3 activity; for EC50: concentration required to induce 50% levels of chondrogenesis with TGF-β3 as positive control, read-out: Conc (nM) of 50% TGF-β3 activity. The method in brief: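 Primary hMSCs at passage 3–6 were treated across compound concentrations, with TGF-β3 as positive control. Chondrogenic nodule area per well was normalized to 3 DMSO wells on the same plate (fold over DMSO, 2–3 replicates). EC50, maximum activity and the dose reaching it were derived.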

A value given as a limit tells only on which side of the number the result lay.

CLK2 kinase, sequence (P49760 whole entry): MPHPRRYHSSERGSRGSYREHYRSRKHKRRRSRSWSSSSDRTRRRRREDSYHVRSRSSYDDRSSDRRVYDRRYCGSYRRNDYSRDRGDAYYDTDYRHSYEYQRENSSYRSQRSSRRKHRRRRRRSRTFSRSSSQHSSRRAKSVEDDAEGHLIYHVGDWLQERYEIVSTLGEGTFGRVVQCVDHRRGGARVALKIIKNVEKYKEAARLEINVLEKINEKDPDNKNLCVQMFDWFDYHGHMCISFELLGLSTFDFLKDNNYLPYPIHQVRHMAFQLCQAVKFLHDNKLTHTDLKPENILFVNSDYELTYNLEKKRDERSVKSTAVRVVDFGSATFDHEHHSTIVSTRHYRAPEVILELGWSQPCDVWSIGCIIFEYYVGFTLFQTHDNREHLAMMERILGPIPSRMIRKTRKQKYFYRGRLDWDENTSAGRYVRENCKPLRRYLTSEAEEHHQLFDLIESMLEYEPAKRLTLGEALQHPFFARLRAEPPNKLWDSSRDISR
CLK3 kinase, sequence (P49761 whole entry): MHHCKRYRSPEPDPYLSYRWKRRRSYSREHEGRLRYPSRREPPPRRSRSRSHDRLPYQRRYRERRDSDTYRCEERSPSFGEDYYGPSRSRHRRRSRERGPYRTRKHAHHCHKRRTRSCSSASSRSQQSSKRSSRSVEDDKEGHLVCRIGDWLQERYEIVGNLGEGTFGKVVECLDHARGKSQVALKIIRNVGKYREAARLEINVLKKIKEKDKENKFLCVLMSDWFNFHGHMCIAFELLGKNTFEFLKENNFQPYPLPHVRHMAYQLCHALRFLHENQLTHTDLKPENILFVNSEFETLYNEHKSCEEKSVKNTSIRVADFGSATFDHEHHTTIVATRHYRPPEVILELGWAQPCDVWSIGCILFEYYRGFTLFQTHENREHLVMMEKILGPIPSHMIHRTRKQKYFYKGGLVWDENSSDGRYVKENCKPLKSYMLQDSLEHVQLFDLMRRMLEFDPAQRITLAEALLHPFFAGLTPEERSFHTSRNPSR

`CN1CCN(c2cncc3[nH]c(-c4n[nH]c5ccc(-c6cncc(NC(=O)CC7CCNCC7)c6)cc45)cc23)CC1` [compound 485]: the EC50 was above 10000 nM in assay [1], 303 nM on CLK3 kinase and 4 nM at CLK2 kinase. The Emax in assay [2] amounted to 289%.
The like results for `CC(C)C(=O)Nc1cncc(-c2ccc3[nH]nc(-c4nc5c(-c6cccnc6)ccnc5[nH]4)c3n2)c1` [compound 187] were, in that order, above 10000 nM, 132 nM, 2 nM and 26.1%.
For the compound `FC1(F)CCN(Cc2cncc(-c3ccc4[nH]nc(-c5cc6c(-c7cccnc7)ccnc6[nH]5)c4c3)c2)C1` [compound 370], the results for the EC50 (in assay [1]; at CLK3 kinase; at CLK2 kinase) were 523 nM, 101 nM and 6 nM, respectively. Also, the Emax in assay [2] is 20.3%.
The like results for `c1cnc2[nH]c(-c3n[nH]c4ccc(-c5cncc(CN6CCCCC6)c5)cc34)cc2c1` [compound 450] were, in that order, 1670 nM, 85 nM, 3 nM and 50.8%.
As to `Cc1n[nH]c2ccc(-c3cncc(OC[C@H](N)Cc4ccccc4)n3)cc12` [compound 52], the EC50 turned out to be 253 nM in assay [1], 361 nM at CLK3 kinase, 2 nM at CLK2 kinase and 30 nM in assay [2]. Also, in assay [2], the Emax was 52.1%.
As for `c1cncc(-c2ccc3[nH]nc(-c4nc5c(-c6cccnc6)cncc5[nH]4)c3c2)c1` [compound 178], the EC50 in assay [1] amounted to 35 nM; on CLK3 kinase it was 207 nM; on CLK2 kinase it was 5 nM; in assay [2], 30 nM. Besides, the Emax in assay [2] was 159%.
As to `CN1CCN(c2cncc3[nH]c(-c4n[nH]c5ccc(-c6cccnc6)cc45)nc23)CC1` [compound 213], the EC50 in assay [1] is 53 nM; at CLK3 kinase, 51 nM; on CLK2 kinase, 1 nM. In addition, the Emax in assay [2] stood at 80.6%.
For `O=C(Nc1cncc(-c2ccc3[nH]nc(-c4cc5c(-c6ccccc6F)nccc5[nH]4)c3n2)c1)C1CC1` [compound 330], the EC50 in assay [1] came to 642 nM; at CLK3 kinase, 109 nM; on CLK2 kinase it was 12 nM. In assay [2], the Emax amounted to 24.8%.
The like results for `CCC(=O)Nc1cncc(-c2cnc3[nH]nc(-c4nc5c(-c6cccs6)cncc5[nH]4)c3c2)c1` [compound 255] were, in that order, 4 nM, 62 nM, 3 nM and 69.8%.
Take `Cc1ccncc1-c1cc2c(-c3cc4cnccc4[nH]3)n[nH]c2cn1` [compound 416]: the EC50 was 389 nM in assay [1], 61 nM on CLK3 kinase, 3 nM on CLK2 kinase and 10 nM in assay [2]. The Emax in assay [2] came out at 61.4%.
Turning to `CC(C)CC(=O)Nc1cncc(-c2cnc3[nH]nc(-c4cc5c(-c6cc(F)cc(CNS(C)(=O)=O)c6)nccc5[nH]4)c3c2)c1` [compound 522], the EC50 in assay [1] turned out to be 1510 nM; at CLK3 kinase, 48 nM; at CLK2 kinase, 8 nM; in assay [2] it was 300 nM. Also, the Emax in assay [2] was 52%.
As to `CCCCC(=O)Nc1cncc(-c2ccc3[nH]nc(-c4nc5c(-c6ccoc6)cncc5[nH]4)c3n2)c1` [compound 231], the EC50 in assay [1] was above 10000 nM; at CLK3 kinase, 361 nM; at CLK2 kinase it was 3 nM; in assay [2], 10 nM. Besides, the Emax in assay [2] is 73.6%.
As to `Nc1cncc(-c2ccc3[nH]nc(-c4cc5cccnc5[nH]4)c3c2)c1` [compound 417], the results for the EC50 (in assay [1]; at CLK3 kinase; on CLK2 kinase) were 102 nM, 73 nM and 3 nM, respectively. In addition, the Emax in assay [2] is 35.5%.
The like results for `CC(C)C(=O)Nc1cncc(-c2cc3c(-c4cc5c(-c6cccc(F)c6)cncc5[nH]4)n[nH]c3cn2)c1` [compound 307] were, in that order, 1730 nM, 307 nM, 13 nM and 42.2%.
The like results for `O=C(Nc1cncc(-c2ccc3[nH]nc(-c4cc5c(-c6cccnc6)cncc5[nH]4)c3c2)c1)c1ccccc1` [compound 358] were, in that order, above 10000 nM, 71 nM, 7 nM and 68.5%.
As to `O=C(Nc1cnccc1NC(=O)C1CC1)c1n[nH]c2ccc(-c3cncc(CN4CCCCC4)c3)cc12` [compound 86], the EC50 was 120 nM in assay [1], 1270 nM at CLK3 kinase, 3 nM on CLK2 kinase and 30 nM in assay [2]. Besides, the Emax in assay [2] is 53.7%.
As to `CN(C)Cc1cncc(-c2cnc3[nH]nc(-c4nc5c(-c6cc(F)cc(N7CCOCC7)c6)cncc5[nH]4)c3c2)c1` [compound 294], the EC50 was found to be 21 nM in assay [1], 25 nM on CLK3 kinase, 1 nM on CLK2 kinase and 30 nM in assay [2]. Besides, the Emax in assay [2] was determined as 114%.
Turning to `CN(C)Cc1cncc(-c2cc3c(-c4cc5c(-c6ccncc6)cncc5[nH]4)n[nH]c3cn2)c1` [compound 399], the EC50 is above 10000 nM in assay [1], 188 nM on CLK3 kinase, 4 nM on CLK2 kinase and 30 nM in assay [2]. The Emax in assay [2] was found to be 51.7%.
Take `CC(C)Nc1cncc(-c2ccc3[nH]nc(-c4cc5c(-c6cccnc6)cncc5[nH]4)c3c2)c1` [compound 360]: the EC50 in assay [1] is 670 nM; on CLK3 kinase it was 330 nM; at CLK2 kinase, 4 nM. In assay [2], the Emax stood at 41.9%.
With `O=C(Nc1cncc(-c2cnc3[nH]nc(-c4cc5c(-c6cccs6)nccc5[nH]4)c3c2)c1)C1CCC1` [compound 507], the EC50 in assay [1] came to 473 nM; at CLK3 kinase it was 60 nM; at CLK2 kinase, 10 nM; in assay [2], 100 nM. The Emax in assay [2] came out at 82.2%.
As to `CS(=O)(=O)NCc1cc(F)cc(-c2nccc3[nH]c(-c4n[nH]c5ncc(-c6cncc(OCc7ccccc7)c6)cc45)cc23)c1` [compound 537], the EC50 in assay [1] was 3990 nM; on CLK3 kinase, 329 nM; at CLK2 kinase, 13 nM. Besides, in assay [2], the Emax is 20.6%.
Take `CC(C)Nc1cncc(-c2ccc3[nH]nc(-c4nc5c(-c6cccnc6)nccc5[nH]4)c3n2)c1` [compound 193]: the EC50 came out at 981 nM in assay [1], 322 nM at CLK3 kinase, 2 nM on CLK2 kinase and 10 nM in assay [2]. For the same compound, in assay [2], the Emax turned out to be 54.4%.
For `c1cncc(-c2cc3c(-c4cc5cccnc5[nH]4)n[nH]c3cn2)c1` [compound 413], the results for the EC50 (in assay [1]; on CLK3 kinase; at CLK2 kinase) were above 10000 nM, 5490 nM and 4 nM, respectively. Moreover, the Emax in assay [2] is 27.6%.
The like results for `CN1CCN(c2ccnc3[nH]c(-c4n[nH]c5ccc(-c6cncc(NC(=O)CC(C)(C)C)c6)nc45)cc23)CC1` [compound 480] were, in that order, 3870 nM, 186 nM, 7 nM and 30.3%.
As to `Nc1cncc(-c2cnc3[nH]nc(-c4nc5c(-c6ccccc6F)ccnc5[nH]4)c3c2)c1` [compound 168], the EC50 in assay [1] was 12.3 nM; on CLK3 kinase, 76 nM; on CLK2 kinase, 33 nM; in assay [2] it was 300 nM. Moreover, the Emax in assay [2] was 59.9%.

These data come from patent publication US20230000842A1, “METHODS OF TREATING CARTILAGE DISORDERS THROUGH INHIBITION OF CLK AND DYRK” (SAMUMED, LLC, priority 2019, published 2023).
